Columns and labels:
[1] = target: T1, GAL4 DBD-CfEcR(DEF)/VP16AD-MmRXRE (Choristoneura fumiferana, UniProt O77240); experiment: 13B3 assay: luciferase reporter gene induction in stable CHO clone 13B3; type: cell-based; settings: 33/33.3 μM ligand, 48 h, RLU relative to DMSO
T1 construct: The wild-type D, E, and F domains from spruce budworm Choristoneura fumiferana EcR (“CfEcR-DEF”)
Procedure: CHO cells were transiently transfected with transcription cassettes for GAL4 DBD-CfEcR(DEF) and for VP16AD-MmRXRF controlled by SV40e promoters. Stably transfected cells were selected using Hygromycin. Individually isolated CHO cell clones were transiently transfected with a GAL4 RE-luciferase reporter (pFR-Luc, Stratagene, La Jolla, Calif.). The 13B3 clone was selected using Zeocin.
(§1) Cells were trypsinized and diluted to a concentration of 2.5×10^4 cells mL. 100 μL of cell suspension was placed in each well of a 96 well plate and incubated at 37° C. under 5% CO2 for 24 h. Ligand stock solutions were prepared in DMSO and diluted 300 fold for all treatments.
(§2) Luciferase reporter gene expression was measured 48 h after cell treatment using Bright-Glo™ Luciferase Assay System from Promega (E2650). Luminescence was detected at room temperature using a Dynex MLX microtiter plate luminometer.
(§3) Each assay was conducted in two separate wells, and the two values were averaged. Fold inductions were calculated by dividing relative light units (“RLU”) in ligand treated cells with RLU in DMSO treated cells. EC50s were calculated from dose response data using a three-parameter logistic model.

Bombyx mori EcR (VBE) = target: T2, Bombyx mori EcR (VBE) (Bombyx mori, UniProt P49881); experiment: Z3 assay: β-galactosidase reporter gene induction in HEK-293 clone Z3 (CVBE / 6XEcRE LacZ); type: cell-based; settings: 33 μM ligand, 48 h, RLU relative to DMSO; for fold induction at 33 µM: HEK293, read-out: Fold Induction Average, Z3 assay
T2 construct: expressed in transfected cells; host or cells: Human HEK-293 cells, retrovirally infected, clone Z3
T2 sequence (P49881 86-606 limits assumed): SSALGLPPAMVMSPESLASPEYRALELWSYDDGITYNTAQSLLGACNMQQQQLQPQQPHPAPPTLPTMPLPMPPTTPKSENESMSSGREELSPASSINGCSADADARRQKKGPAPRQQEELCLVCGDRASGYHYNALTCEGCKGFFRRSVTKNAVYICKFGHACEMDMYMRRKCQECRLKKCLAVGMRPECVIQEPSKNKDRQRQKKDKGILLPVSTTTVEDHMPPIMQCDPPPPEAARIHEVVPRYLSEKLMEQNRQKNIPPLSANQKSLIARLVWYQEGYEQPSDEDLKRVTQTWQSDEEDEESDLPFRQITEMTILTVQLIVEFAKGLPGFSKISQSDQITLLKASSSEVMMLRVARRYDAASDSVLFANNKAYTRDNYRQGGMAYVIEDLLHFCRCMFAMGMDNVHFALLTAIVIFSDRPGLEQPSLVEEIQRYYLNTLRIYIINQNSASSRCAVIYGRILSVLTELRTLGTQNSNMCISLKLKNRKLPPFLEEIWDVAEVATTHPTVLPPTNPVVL
T2 sequence (P19793 1-462 partner): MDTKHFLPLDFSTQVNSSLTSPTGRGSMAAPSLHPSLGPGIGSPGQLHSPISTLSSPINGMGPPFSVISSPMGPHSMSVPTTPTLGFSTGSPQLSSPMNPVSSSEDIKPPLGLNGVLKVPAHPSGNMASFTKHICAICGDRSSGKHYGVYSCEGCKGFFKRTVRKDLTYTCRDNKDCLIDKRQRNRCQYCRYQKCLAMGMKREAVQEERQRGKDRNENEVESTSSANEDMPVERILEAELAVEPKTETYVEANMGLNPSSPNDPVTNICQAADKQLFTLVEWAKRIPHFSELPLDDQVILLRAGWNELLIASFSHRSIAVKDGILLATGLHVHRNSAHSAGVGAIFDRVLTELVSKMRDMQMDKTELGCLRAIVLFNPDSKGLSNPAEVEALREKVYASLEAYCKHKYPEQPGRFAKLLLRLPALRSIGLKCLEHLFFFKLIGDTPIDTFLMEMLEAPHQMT
Procedure: A synthetic ATG start codon was placed under the control of cytomegalovirus (CVBE) immediate early promoter and flanked by long terminal repeats (LTR). The reporter construct contained six copies of the ecdysone response element (EcRE) binding site placed upstream of LacZ and flanked on both sides with LTR sequences (6×EcRE).
Dilution cloning was used to isolate individual clones. Clones were selected using 450 ug/mL G418 and 100 ng/mL puromycin. Individual clones were evaluated based on their response in the presence and absence of test ligands.
Z3 cells were seeded into 96-well tissue culture plates at a concentration of 2.5×10^3 cells per well and incubated at 37° C. in 5% CO2 for twenty-four hours. Stock solutions of ligands were prepared in DMSO. […] The final concentration of DMSO was maintained at 0.03% in both controls and treatments.
Reporter gene expression was evaluated 48 hours after treatment of cells, β-galactosidase activity was measured using Gal Screen™ bioluminescent reporter gene assay system from Tropix (GSY1000). Fold induction activities were calculated by dividing relative light units (“RLU”) in ligand treated cells with RLU in DMSO treated cells. Luminescence was detected at room temperature using a Dynex MLX microtiter plate luminometer.
as §3

[2] = target: T3, GAL4 DBD (1-147)-CfEcR(DEF)/VP16AD-βRXREF-LmUSPEF (Choristoneura fumiferana, UniProt O77240); experiment: cell-based; settings: for fold induction at 33.3 µM: 48 h, read-out: Fold Induction Average, 27-63 assay; for Rel Max FI, 27-63 assay: maximum fold induction relative to that of GS-E ligand
T3 construct: The wild-type D, E, and F domains from spruce budworm Choristoneura fumiferana EcR (“CfEcR-DEF”)
Procedure: Stably transfected cells were selected by Zeocin resistance. Individually isolated CHO cell clones were transiently transfected with a GAL4 RE-luciferase reporter (pFR Luc). 27-63 clone was selected using Hygromycin.
as §1, §2, §3

Compound	Fold Induction Average, 13B3 assay [1]	Fold Induction Average, Z3 assay (Bombyx mori EcR (VBE))	EC50 [2]	fold induction at 33.3 µM [2]	Rel Max FI, 27-63 assay [2]	also measured
COc1ccccc1C1=NOC(C)(C)N1NC(=O)c1ccco1 [RG-120012]	0.7	0.7				
COc1ccc(C2=NOC(C)(C)N2NC(=O)c2ccco2)c(OC)c1 [RG-120102]	0.5	0.8				
Cc1cc(C)cc(C2=NOC3(CCCC3)N2NC(=O)COCc2ccccc2)c1 [RG-120052]	0.7	4.9				
CCOC(=O)CCC(=O)NN1C(c2ccc(Cl)cc2)=NOC1(C)C [RG-120164]	1.7	0.6				
COc1cccc(C(=O)NN2C(c3cc(C)cc(C)c3)=NOC23CCOCC3)c1C [RG-120086, N-[3-(3,5-dimethyl-phenyl)-1,8-dioxa-2,4-diaza-spiro[4.5]dec-2-en-4-yl]-3-methoxy-2-methyl-benzamide]						fold induction at 33.3 µM ([1]; read-out: Fold Induction Average, 13B3 assay): 4; fold induction at 33 µM (Bombyx mori EcR (VBE)): 112
CC1(C)ON=C(c2cccc(C(F)(F)F)c2)N1NC(=O)COCc1ccccc1 [RG-120006]	1.1	0.5				
CCc1ccc(C(=O)NN2C(c3cccc(C(F)(F)F)c3)=NOC2(C)C)cc1 [RG-120148]			> 33 µM	0.7	0	fold induction at 33 µM (Bombyx mori EcR (VBE)): 1.1
COc1ccccc1C1=NOC(C)(C)N1NC(=O)C(F)(F)C(F)(F)Cl [RG-120062]	0.2	0.6				
Cc1cc(C)cc(C2=NOC3(CCCC3)N2NC(=O)Cc2ccccc2)c1 [RG-120046]	1.3	8.9				
COc1ccc(C2=NOC(C)(C)N2NC(=O)c2cc3ccccc3s2)c(OC)c1 [RG-120129]	0.9	0.4				
CC1(C)ON=C(c2ccc(Cl)cc2)N1NC(=O)Cc1ccccc1 [RG-120121]	0.1	0.7				
CC1(C)ON=C(c2ccc(Cl)cc2)N1NC(=O)Nc1ccccc1 [RG-120067]	2.6	0.5				
CC1(C)ON=C(c2ccc(OC(F)(F)F)cc2)N1NC(=O)COc1ccccc1 [RG-120029]	1.5	0.7				
COc1ccc(C2=NOC(C)(C)N2NC(=O)COCc2ccccc2)c(OC)c1 [RG-120110]	0.8	0.5				
CCc1ccc(C(=O)NN2C(c3cc(C)cc(C)c3)=NOC23CCOCC3)cc1 [RG-120005]			> 33 µM	0.8	0	
CCc1ccc(C(=O)NN2C(c3ccc(-c4ccccc4)cc3)=NOC2(C)C)cc1 [RG-120142]	0.3	0.4				
CC1(C)ON=C(c2ccc3c(c2)OCO3)N1NC(=O)c1ccco1 [RG-120149]	1.1	0.7				
CCC1(C)ON=C(c2cc(C)cc(C)c2)N1NC(=O)COCc1ccccc1 (centres unmarked) [RG-120050]	0.9	3.5				

Compound	Fold Induction Average, 13B3 assay [1]	Fold Induction Average, Z3 assay (Bombyx mori EcR (VBE))	EC50 [2]	fold induction at 33.3 µM [2]	Rel Max FI, 27-63 assay [2]	also measured
CCc1ccc(C(=O)NN2C(c3ccccc3)=NOC2(C)C)c(F)c1 [RG-121516]			> 33 µM	7.9	0	
CCc1c(OC)cccc1C(=O)NN1C(c2ccc3c(c2)OCO3)=NOC1(C)C [RG-120023]			> 33 µM	1.4	0	fold induction at 33 µM (Bombyx mori EcR (VBE)): 0.2
CC1(C)ON=C(c2ccc(OC(F)(F)F)cc2)N1NC(=O)c1cc2ccccc2s1 [RG-120109]		0.2				
CCc1c(OC)cccc1C(=O)NN1C(c2ccc(OC(F)(F)F)cc2)=NOC1(C)C [RG-120022]			> 33 µM	0.3	0	fold induction at 33 µM (Bombyx mori EcR (VBE)): 0.1
CCOC(=O)CCC(=O)NN1C(c2ccc(OC)cc2OC)=NOC1(C)C [RG-120038]		0.2				
CC1(C)ON=C(c2cccc(C(F)(F)F)c2)N1NC(=O)C(F)(F)C(F)(F)Cl [RG-120059]		0.6				
CCc1c(OC)cccc1C(=O)NN1C(c2cccc(C(F)(F)F)c2)=NOC1(C)C [RG-120093]			> 33 µM	5	0	fold induction at 33 µM (Bombyx mori EcR (VBE)): 0.2
CCOC(=O)CCC(=O)NN1C(c2ccccc2)=NOC12CCCC2 [RG-120014]		1.1				
Cc1cc(C)cc(C2=NOC3(CCOCC3)N2NC(=O)c2ccccc2)c1 [RG-120019]			> 33 µM	1.5	0	
CC1(C)ON=C(c2cccc(C(F)(F)F)c2)N1NC(=O)c1cc2ccccc2s1 [RG-120108]		0.3				
COc1ccccc1C1=NOC(C)(C)N1NC(=O)Cc1ccccc1 [RG-120157]		0.9				
CCc1c(C(=O)NN2C(c3cc(C)cc(C)c3)=NOC2(C)CC)ccc2c1OCCO2 (centres unmarked) [RG-121518]			3.57 µM	2340	1.08	
Cc1cc(C)cc(C2=NOC3(CCOCC3)N2NC(=O)COc2ccccc2)c1 [RG-120048]		1.0				
CCc1ccc(C(=O)NN2C(c3cc(C)cc(C)c3)=NOC2(C)CC)c(F)c1 (centres unmarked) [RG-121513]			~10 µM	1020	0.44	
CCc1ccc(C(=O)NN2C(c3ccccc3)=NOC23CCCC3)c(F)c1 [RG-121514]			3.89 µM	1.7	0.5	
CCc1ccc(C(=O)NN2C(c3cc(C)cc(C)c3)=NOC23CCCC3)c(F)c1 [RG-121515]			~5 µM	36.6	0.17	
COc1ccc(C2=NOC(C)(C)N2NC(=O)Cc2ccccc2)c(OC)c1 [RG-120078]		0.4				
CCc1c(C(=O)NN2C(c3ccccc3)=NOC2(C)C)ccc2c1OCCO2 [RG-121517, 5-ethyl-2,3-dihydro-benzo[1,4]dioxine-6-carboxylic acid (5,5-dimethyl-3-phenyl-[1,2,4]oxadiazol-4-yl)-amide]			~20 µM	3510	1.55	

From US8669072B2, “Oxadiazoline ligands for modulating the expression of exogenous genes via an ecdysone receptor complex” (Intrexon Corporation, priority 2003, dated 2014)
